{
  "source": "patent US20040254100A1",
  "about": "“Use of thiostrepton as an anti-mycobacterial agent” (priority 2000, published 2004)",
  "test_system": "M. tuberculosis H37Ra in murine alveolar macrophage-like cell line MH-S",
  "test": "microbe, parasite or virus in culture",
  "assay_type": "cell-based",
  "conditions": "Mycobacterium tuberculosis, 24 h",
  "data": [
    {"smiles": "C=C(NC(=O)C(=C)NC(=O)c1csc(C2=N[C@@H]3c4csc(n4)[C@H]4NC(=O)c5csc(n5)[C@H]([C@](C)(O)[C@@H](C)O)NC(=O)[C@H]5CSC(=N5)/C(=C/C)NC(=O)[C@H]([C@@H](C)O)NC(=O)c5csc(n5)[C@]3(CC2)NC(=O)[C@H](C)NC(=O)C(=C)NC(=O)[C@H](C)NC(=O)[C@H]([C@@H](C)CC)N[C@@H]2C=Cc3c([C@H](C)O)cc(nc3[C@H]2O)C(=O)O[C@@H]4C)n1)C(N)=O", "note": "[thiostrepton, Thiostrepton]", "values": [
      {"measurement": "IC50", "result": 30, "unit": "nM"}
    ]}
  ]
}
